Results reported in US9322066B2, “Predictors for cancer treatment” (priority 2011, dated 2016).

Tested on: relapsed or refractory, rituximab-naive or -sensitive follicular B-cell NHL
Test: Overall survival (OS), Vc-R vs rituximab study, by biomarker
Type: in vivo, human
Design: OS Median: unit not given here
Text: Non-Hodgkin lymphoma (NHL) encompasses several unique malignant lymphoid disease entities that vary in clinical behavior, morphologic appearance, immunologic, and molecular phenotype. […] A randomized, open-label, active-controlled, multicenter, multinational, prospective study to compare the efficacy and safety of the combination of bortezomib and rituximab (Vc-R) to single-agent rituximab in subjects who have relapsed or refractory, rituximab-naive or -sensitive follicular B-cell NHL was performed.
Subjects were centrally randomized to Treatment Groups A (Vc-R) or B (rituximab) in a 1:1 ratio taking into account the following stratification factors: • Follicular Lymphoma International Prognostic Index (FLIPI) score (low [0 or 1 factor], intermediate [2 factors], high [≧3 factors]); • Prior rituximab therapy (yes, no); • Time since last dose of anti-lymphoma therapy (≦1 year, >1 year); • Region (United States/Canada, European Union, Rest of World).
The following clinical endpoints were included in the analysis within each treatment group and an overall comparison was made with the biomarker-related endpoints: Progression-free survival, defined as the interval between the date of randomization and the date of progressive disease (PD) or death, whichever is first reported in the ITT population; overall survival; overall response rate (complete response [CR]+CR unconfirmed [CRu]+partial response [PR]); overall CR rate (CR+CRu); duration of response; time to next anti-lymphoma therapy; and treatment free interval.
Overall Survival was measured from the date of randomization to the date of the subject's death. If the subject was alive or the vital status was unknown, it was censored at the date that the subject was last known to be alive. Similar to PFS and TTP, the Cox proportional hazard model was used to evaluate the association between biomarker endpoints and OS. Kaplan-Meier survival curves were presented. Analyses were done for the population overall and by treatment group, and each of these analyses was stratified by the covariates used for PFS.

[1] = 20S % POSITIVE CYTOPLASMIC SIGNAL: 95-100, 2 Prior Lines of Therapy
[2] = 20S % POSITIVE CYTOPLASMIC SIGNAL: 95-100, Ann Arbor Stage IV
[3] = BCL2/P59L: MD, Ann Arbor Stage IV
[4] = BCL2/P59L: MD, High FLIPI Score
[5] = BCL2/P59L: MD, High Tumor Burden
[6] = BCL2/P59L: MD, No Prior Rituximab Therapy
[7] = CD68 OVERALL POSITIVE: 26-50, 2 Prior Lines of Therapy
[8] = CD68 POSITIVE PERIFOLLICULAR: 26-50, 2 Prior Lines of Therapy
[9] = NOTCH/P2513L: MD, >65 years old
[10] = PSMB5/R24C: C/T, Ann Arbor Stage IV
[11] = PSMB5/R24C: C/T, Intermediate FLIPI Score

Substance: rituximab
- OS Evt/N (20S % POSITIVE CYTOPLASMIC SIGNAL: 0-20, 2 Prior Lines of Therapy): 1/10
- OS Evt/N (20S % POSITIVE CYTOPLASMIC SIGNAL: 0-20, Ann Arbor Stage IV): 1/15
- OS Evt/N [1]: 14/35
- OS Median [1]: 1205
- OS Evt/N [2]: 25/56
- OS Median [2]: 1205
- Median OS (Vc − R vs R) (20S INTENSITY CYTOPLASMIC SIGNAL >=3+ + P65 % POSITIVE CYTOPLASMIC SIGNAL <=90%, Selected (biomarker positive)): 717 days
- OS Evt/N (20S INTENSITY CYTOPLASMIC SIGNAL: ≦2+, Intermediate FLIPI Score): 2/48
- OS Evt/N (20S INTENSITY CYTOPLASMIC SIGNAL: ≧3+, Male): 10/27
- Median OS (Vc − R vs R) (AGEGRP >65 + CD68 POSITIVE FOLLICULAR >50, Selected (biomarker positive)): 971 days
- OS Evt/N [3]: 5/5
- OS Median [3]: 174
- OS Evt/N (BCL2/P59L: MD, Female): 6/8
- OS Median (BCL2/P59L: MD, Female): 536
- OS Evt/N [4]: 6/6
- OS Median [4]: 282
- OS Evt/N [5]: 5/6
- OS Median [5]: 282
- OS Evt/N [6]: 5/5
- OS Median [6]: 174
- OS Evt/N (BCL2/P59L: MD, Rest of World): 4/5
- OS Median (BCL2/P59L: MD, Rest of World): 174
- OS Evt/N (BCL2/R106H: MD, Male): 8/10
- OS Median (BCL2/R106H: MD, Male): 318
- OS Evt/N [7]: 13/26
- OS Median [7]: 1205
- OS Evt/N (CD68 OVERALL POSITIVE: 26-50, No High Tumor Burden): 14/54
- OS Evt/N (CD68 OVERALL POSITIVE: 51-75, Ann Arbor Stage III): 2/21
- OS Evt/N (CD68 POSITIVE FOLLICULAR: 0-25, No Prior Rituximab Therapy): 11/36
- OS Evt/N (CD68 POSITIVE FOLLICULAR: 0-25, ≦65 years old): 14/46
- OS Evt/N [8]: 7/16
- OS Median [8]: 1205
- OS Evt/N (CD68 POSITIVE PERIFOLLICULAR: 26-50, Male): 11/30
- OS Evt/N (CD68 POSITIVE PERIFOLLICULAR: 26-50, No High Tumor Burden): 10/41
- Median OS (Vc − R vs R) (FLIPI High + CD68 POSITIVE FOLLICULAR 0-50, Selected): 1263 days
- Median OS (Vc − R vs R) (FLIPI High + P27 % NUCLEI POSITIVE 0-70, Selected): 1111 days
- Median OS (Vc − R vs R) (FLIPI High + P27 SIGNAL INTENSITY >=2+, Selected): 1263 days
- OS Evt/N [9]: 8/13
- OS Median [9]: 795
- OS Evt/N (NOTCH/P2513L: MD, No High Tumor Burden): 7/26
- OS Evt/N (NOTCH/Q2460X: MD, Male): 3/3
- OS Median (NOTCH/Q2460X: MD, Male): 595
- OS Evt/N (NOTCH/X28DEL: MND, 2 Prior Lines of Therapy): 20/56
- OS Evt/N (NOTCH/X28DEL: MND, Male): 26/75
- OS Evt/N (P27 % NUCLEI POSITIVE: 0-20, No High Tumor Burden): 3/29
- OS Evt/N (P27 % NUCLEI POSITIVE: 60-70, Male): 4/12
- OS Evt/N (P65 % POSITIVE CYTOPLASMIC SIGNAL: >90%, 2 Prior Lines of Therapy): 19/52
- OS Evt/N (P65 INTENSITY CYTOPLASMIC SIGNAL: ≦1+, Intermediate FLIPI Score): 1/17
- OS Evt/N (P65 INTENSITY CYTOPLASMIC SIGNAL: ≧2+, 2 Prior Lines of Therapy): 19/55
- OS Evt/N [10]: 9/15
- OS Median [10]: 717
- OS Evt/N [11]: 4/10
- OS Median [11]: 971
- OS Evt/N (PSMB9/R60H: A/A, 3 Prior Lines of Therapy): 1/6
- Median OS (Vc-R vs R) (SEX MALE + 20S % NUCLEAR STAINING 30-90, Selected): 1263 days
- Median OS (Vc-R vs R) (Selected: FLIPI High and P65 % POSITIVE CYTOPLASMIC SIGNAL >90%): 1263 days
